The assay concerns the target mKv1.3 (Mus musculus, UniProt P16390). Put plainly: cell-based.

SMILES strings stand for the structures.

The IC50 is the midpoint of a concentration-inhibition curve. Low readings indicate greater potency in that assay, high ones weaker potency in that assay.

Sequence of mKv1.3 (P16390 whole entry): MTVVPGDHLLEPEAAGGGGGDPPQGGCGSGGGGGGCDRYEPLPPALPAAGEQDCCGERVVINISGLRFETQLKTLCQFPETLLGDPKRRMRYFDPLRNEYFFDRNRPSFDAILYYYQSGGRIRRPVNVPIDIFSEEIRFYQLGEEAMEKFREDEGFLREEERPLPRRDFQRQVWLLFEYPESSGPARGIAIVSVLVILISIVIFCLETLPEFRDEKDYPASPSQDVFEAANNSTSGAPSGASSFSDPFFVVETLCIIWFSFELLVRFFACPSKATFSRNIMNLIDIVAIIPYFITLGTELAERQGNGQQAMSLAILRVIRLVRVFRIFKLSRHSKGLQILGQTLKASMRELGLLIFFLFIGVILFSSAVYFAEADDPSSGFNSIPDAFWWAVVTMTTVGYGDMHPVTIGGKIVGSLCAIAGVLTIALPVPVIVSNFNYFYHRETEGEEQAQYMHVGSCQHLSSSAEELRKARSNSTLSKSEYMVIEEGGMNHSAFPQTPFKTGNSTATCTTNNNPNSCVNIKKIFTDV

Consider `CC[C@H](C)[C@@H]1NC(=O)[C@@H](NC(=O)[C@H](CO)NC(=O)[C@@H](N)CCCNC(=N)N)CSSC[C@@H](C(=O)O)NC(=O)[C@H]([C@@H](C)O)NC(=O)CNC(=O)[C@@H]2CSSC[C@@H]3NC(=O)[C@H](CCC(N)=O)NC(=O)[C@H](Cc4ccccc4)NC(=O)[C@H](C)NC(=O)[C@H]([C@@H](C)O)NC(=O)[C@H](CSSC[C@H](NC(=O)[C@H](Cc4ccccc4)NC(=O)[C@H](CO)NC(=O)[C@H](CC(C)C)NC(=O)[C@H](CCCNC(=N)N)NC(=O)[C@H](Cc4ccc(O)cc4)NC(=O)[C@H](CCCCN)NC(=O)[C@H](CCSC)NC(=O)[C@H](CO)NC(=O)[C@H](Cc4cnc[nH]4)NC(=O)[C@H](CCCCN)NC3=O)C(=O)N[C@@H](CCCNC(=N)N)C(=O)N[C@@H](CCCCN)C(=O)N[C@@H]([C@@H](C)O)C(=O)N2)NC(=O)[C@H](CCCNC(=N)N)NC(=O)[C@H](CO)NC(=O)[C@H](CCCCN)NC(=O)[C@@H]2CCCN2C(=O)[C@H]([C@@H](C)CC)NC(=O)[C@H]([C@@H](C)O)NC(=O)[C@H](CC(=O)O)NC1=O` [ShK], for which the IC50 amounted to 9.3 ± 2 pM.

For the origin of these results see paper PMC3820677 (PLoS ONE, 2013).
